Key:
[1] = Cyclic voltammetry (CV) in three-electrode cells; format: physicochemical; settings: for Peak to peak potential difference (ΔEp) / Ratio of anodic peak current (Ipa) to cathodic peak current (Ipc) (Ipa/Ipc) @50 mV s^−1: 1st event (or only value); for potential shift after CV cycles: FIG. 7
Protocol: All electrochemical examinations were carried out using a Biologic VMP3 electrochemical workstation in an Ar-filled glove box (MOTek, negligible O2 and H2O, tested by the ketyl solution).
Cyclic voltammetry (CV) was conducted in three-electrode cells comprised of glassy carbon (GC; diameter (d)=3 mm) as the working electrode (WE), a platinum wire as the counter electrode (CE), and a leak-free Ag/AgCl as the reference electrode (RE). The GC electrodes were polished using alumina slurry before testing (ALS Co., Ltd).
After CV analysis, ferrocene (Fc, ferrocene, 98%, Sigma-Aldrich) was added to the cell to measure its redox potential, and the measured sample potential was converted to the Fc/Fc^+.

[2] = Solubility test (UV-vis calibration curves, maximum solubility); settings: for solubility: organic solvent or mixture, thermodynamic from solid
[3] = after 100 cycles (in parentheses)
[4] = initial, 10 mM in 0.1 M TBABF4/MeCN
[5] = 1st redox event (or the only value given), 10 mM in 0.1 M TBABF4/MeCN
[6] = MeCN, Solubility (M) in MeCN, in MeCN
[7] = 2nd redox event, 10 mM in 0.1 M TBABF4/MeCN

Cn1c(-c2cc[n+](C)cc2)nc2ccccc21 [BIP^+·BF4^−, 1-methyl-4-(1-methyl-1H-benzo[d]imidazol-2-yl)pyridin-1-ium tetrafluoroborate]
Peak to peak potential difference (ΔEp) [1, 3]: 99 (99) mV | Ratio of anodic peak current (Ipa) to cathodic peak current (Ipc) (Ipa/Ipc) @50 mV s^−1 [1, 3]: 0.73 | Peak to peak potential difference (ΔEp) [1, 4]: 99 (99) mV | Ratio of anodic peak current (Ipa) to cathodic peak current (Ipc) (Ipa/Ipc) @50 mV s^−1 [1, 4]: 0.71 | Formal potential (E^o′) [1, 5]: −1.41 V vs. Fc/Fc^+

C[n+]1ccc(-c2nc3ccccc3o2)cc1 [BOP^+·BF4^−, 4-(benzo[d]oxazol-2-yl)-1-methylpyridin-1-ium tetrafluoroborate]
Peak to peak potential difference (ΔEp) [1, 3]: 1st = 105 (105) mV | Ratio of anodic peak current (Ipa) to cathodic peak current (Ipc) (Ipa/Ipc) @50 mV s^−1 [1, 3]: 0.46 | Peak to peak potential difference (ΔEp) [1, 4]: 1st = 105 (105) mV | Ratio of anodic peak current (Ipa) to cathodic peak current (Ipc) (Ipa/Ipc) @50 mV s^−1 [1, 4]: 0.79 | Formal potential (E^o′) [1, 5]: 1st = −1.15 V vs. Fc/Fc^+

C[n+]1ccc(-c2nc3ccccc3s2)cc1 [BTP^+·BF4^−, 4-(benzo[d]thiazol-2-yl)-1-methylpyridin-1-ium tetrafluoroborate]
solubility ([2]; 0.5 M TBABF4 in MeCN, maximum solubility in electrolyte solution, 0.5 M TBABF4/MeCN): 0.087 M | Solubility (M) 0.5M TBAPF6/MeCN ([2]; electrolyte solution, head prints 0.5M TBAPF6/MeCN): 0.087 M | Solubility (M) MeCN ([2]; in MeCN): 0.26 M | Solubility (M) in MeCN ([2]; in MeCN): 0.26 M | maximum solubility in MeCN ([2]; in MeCN): 260 mM

CCCCCCCCCC[n+]1ccc(-c2nc3ccccc3s2)cc1 [Dec-BTP^+·BF4^−, 4-(benzo[d]thiazol-2-yl)-1-decylpyridin-1-ium tetrafluoroborate]
solubility [2, 6]: 0.07 M | Peak to peak potential difference (ΔEp) [1, 3]: 102 mV | Ratio of anodic peak current (Ipa) to cathodic peak current (Ipc) (Ipa/Ipc) @50 mV s^−1 [1, 3]: 0.91 | Peak to peak potential difference (ΔEp) [1, 4]: 99 mV | Ratio of anodic peak current (Ipa) to cathodic peak current (Ipc) (Ipa/Ipc) @50 mV s^−1 [1, 4]: 0.93 | Formal potential (E^o′) [1, 5]: 1st = −1.24 V vs. Fc/Fc^+ | Formal potential (E^o′) [1, 7]: 2nd = −1.96 V vs. Fc/Fc^+ | potential shift after CV cycles [1]: positive (+) potential shift

c1ccc2sc(-c3cc[n+](CCCCC[n+]4ccc(-c5nc6ccccc6s5)cc4)cc3)nc2c1 [Di-BTP^2+·2PF6^−, 1,1′-(pentane-1,5-diyl)bis(4-(benzo[d]thiazol-2-yl)pyridin-1-ium) hexafluorophosphate]
solubility [2, 6]: 0.1 M

Cc1cc(-c2nc3ccccc3s2)cc(C)[n+]1C [DiMe-BTP^+·BF4^−, 4-(benzo[d]thiazol-2-yl)-1,2,6-trimethylpyridin-1-ium tetrafluoroborate]
Peak to peak potential difference (ΔEp) [1, 3]: 81 mV | Ratio of anodic peak current (Ipa) to cathodic peak current (Ipc) (Ipa/Ipc) @50 mV s^−1 [1, 3]: 0.88 | Peak to peak potential difference (ΔEp) [1, 4]: 89 mV | Ratio of anodic peak current (Ipa) to cathodic peak current (Ipc) (Ipa/Ipc) @50 mV s^−1 [1, 4]: 0.89 | Formal potential (E^o′) [1, 5]: 1st = −1.33 V vs. Fc/Fc^+ | Formal potential (E^o′) [1, 7]: 2nd = −1.94 V vs. Fc/Fc^+ | cyclability in the CV profile ([1]; 100 CV cycles, FIGS. 6 and 7): excellent cyclability

CCCCCC[n+]1ccc(-c2nc3ccccc3s2)cc1 [Hex-BTP^+·BF4^−, 4-(benzo[d]thiazol-2-yl)-1-hexylpyridin-1-ium tetrafluoroborate]
solubility [2, 6]: 0.23 M | Peak to peak potential difference (ΔEp) [1, 3]: 124 mV | Ratio of anodic peak current (Ipa) to cathodic peak current (Ipc) (Ipa/Ipc) @50 mV s^−1 [1, 3]: 0.99 | Peak to peak potential difference (ΔEp) [1, 4]: 125 mV | Ratio of anodic peak current (Ipa) to cathodic peak current (Ipc) (Ipa/Ipc) @50 mV s^−1 [1, 4]: 0.98 | Formal potential (E^o′) [1, 5]: 1st = −1.36 V vs. Fc/Fc^+ | Formal potential (E^o′) [1, 7]: 2nd = −2.13 V vs. Fc/Fc^+ | potential shift after CV cycles [1]: positive (+) potential shift

C[N+](C)(C)CCC[n+]1ccc(-c2nc3ccccc3s2)cc1 [TMAP-BTP^2+·2PF6^−, 4-(benzo[d]thiazol-2-yl)-1-(3-(trimethylammonio)propyl)pyridin-1-ium hexafluorophosphate]
solubility ([2]; 0.5 M TBAPF6 in MeCN, maximum solubility in electrolyte solution, 0.5 M TBAPF6/MeCN): 0.026 M | Solubility (M) MeCN ([2]; in MeCN): 0.25 M | Solubility (M) in MeCN ([2]; in MeCN): 0.25 M | maximum solubility in MeCN ([2]; in MeCN): 250 mM

— patent US12643893B2, “Heteroaryl-pyridinium compound and redox flow battery comprising the same” (Korea Advanced Institute of Science and Technology, priority 2021, dated 2026)
